Results from PubChem BioAssay (NCI).
Where “and” joins values, the source holds several entries; their conditions need not be identical. Equal entries are not always repeated.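 A five-concentration, 48-hour dose response in 96-well plates underlies each endpoint, interpolated linearly between surrounding concentrations. Here, GI50 denotes the concentration required for 50% inhibition of growth. The concentration for full growth arrest is given as TGI.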

How the values were obtained:
Test in all cases: NCI anticancer screen, dose series, 48 h
ACHN renal = system: ACHN renal
MOLT-4 leukemia = system: MOLT-4 leukemia
IGROV1 ovarian = system: IGROV1 ovarian
U251 CNS = system: U251 CNS
UACC-257 melanoma = system: UACC-257 melanoma
COLO 205 colon = system: COLO 205 colon
CCRF-CEM leukemia = system: CCRF-CEM leukemia
OVCAR-4 ovarian = system: OVCAR-4 ovarian
HS 578T breast = system: HS 578T breast

COc1cc2nc3n(c(=O)c2cc1OC)CCCCC3
TGI (ACHN renal): > 100 µM
TGI (MOLT-4 leukemia): > 100 µM
TGI (IGROV1 ovarian): > 100 µM
TGI (U251 CNS): > 100 µM
TGI (UACC-257 melanoma): > 100 µM
TGI (COLO 205 colon): > 100 µM
TGI (CCRF-CEM leukemia): > 100 µM
TGI (OVCAR-4 ovarian): > 100 µM
TGI (HS 578T breast): > 100 µM

COc1cc2c(cc1OC)-c1[nH]c3ccc([N+](=O)[O-])cc3c1CC(=O)N2
TGI (ACHN renal): 6.2 µM
TGI (MOLT-4 leukemia): > 76.4 µM
TGI (IGROV1 ovarian): > 100 µM
TGI (U251 CNS): > 100 µM
TGI (UACC-257 melanoma): 47.1 µM
TGI (COLO 205 colon): 0.811 µM
TGI (CCRF-CEM leukemia): > 37.6 µM
TGI (OVCAR-4 ovarian): > 32.1 µM
TGI (HS 578T breast): > 100 µM

CC(=O)OC12OC(C)(C3C(=O)N(c4ccccc4)C(=O)C31)N(c1ccccc1)C2=O (stereo not drawn)
TGI (ACHN renal): > 100 µM
TGI (MOLT-4 leukemia): > 100 µM
TGI (IGROV1 ovarian): > 100 µM
TGI (U251 CNS): > 100 µM
TGI (UACC-257 melanoma): > 100 µM
TGI (COLO 205 colon): > 100 µM
TGI (CCRF-CEM leukemia): > 100 µM
TGI (OVCAR-4 ovarian): > 100 µM
TGI (HS 578T breast): > 100 µM

COc1cccc(/C=N/NC(=O)CN(C)C)c1O
TGI (ACHN renal): > 100 µM
TGI (MOLT-4 leukemia): > 100 µM
TGI (IGROV1 ovarian): > 100 µM
TGI (U251 CNS): > 100 µM
TGI (UACC-257 melanoma): > 100 µM
TGI (COLO 205 colon): > 100 µM
TGI (CCRF-CEM leukemia): > 100 µM
TGI (OVCAR-4 ovarian): > 100 µM
TGI (HS 578T breast): > 100 µM

O=C1CCc2ccccc2O1
TGI (ACHN renal): > 100 µM
TGI (MOLT-4 leukemia): > 100 µM
TGI (IGROV1 ovarian): > 100 µM
TGI (U251 CNS): > 100 µM
TGI (UACC-257 melanoma): > 100 µM
TGI (COLO 205 colon): > 100 µM
TGI (CCRF-CEM leukemia): > 100 µM
TGI (OVCAR-4 ovarian): > 100 µM
TGI (HS 578T breast): > 100 µM

COC(=O)C1CCCN1C(=O)OC(C)(C)C (stereo not drawn)
TGI (ACHN renal): > 100 µM
TGI (MOLT-4 leukemia): > 100 µM
TGI (IGROV1 ovarian): > 100 µM
TGI (U251 CNS): > 100 µM
TGI (UACC-257 melanoma): > 100 µM
TGI (COLO 205 colon): > 100 µM
TGI (CCRF-CEM leukemia): > 100 µM
TGI (OVCAR-4 ovarian): > 100 µM

COC(=O)CN(CC1O[C@@H]2OC(C)(C)O[C@@H]2C1NC(C)=O)C(=O)OCc1ccccc1 (stereo partly drawn)
TGI (ACHN renal): > 100 µM
TGI (MOLT-4 leukemia): > 100 µM
TGI (IGROV1 ovarian): > 100 µM
TGI (U251 CNS): > 100 µM
TGI (UACC-257 melanoma): > 100 µM
TGI (COLO 205 colon): > 100 µM
TGI (OVCAR-4 ovarian): > 100 µM
TGI (HS 578T breast): > 100 µM

CCc1n[nH]c(=O)n1N=C(c1ccccc1)c1ccccc1
TGI (ACHN renal): > 100 µM
TGI (MOLT-4 leukemia): > 100 µM
TGI (IGROV1 ovarian): > 100 µM
TGI (U251 CNS): > 100 µM
TGI (UACC-257 melanoma): > 100 µM
TGI (COLO 205 colon): > 100 µM
TGI (CCRF-CEM leukemia): > 100 µM
TGI (OVCAR-4 ovarian): > 100 µM
TGI (HS 578T breast): > 100 µM

CC(=O)CC12NC(=O)N(C)N=C1N(C)C(=O)N(C)C2=O (stereo not drawn)
TGI (ACHN renal): > 100 µM
TGI (MOLT-4 leukemia): > 100 µM
TGI (IGROV1 ovarian): > 100 µM
TGI (U251 CNS): > 100 µM
TGI (UACC-257 melanoma): 40.4 µM
TGI (COLO 205 colon): > 100 µM
TGI (CCRF-CEM leukemia): > 100 µM
TGI (OVCAR-4 ovarian): > 100 µM
TGI (HS 578T breast): > 100 µM

CCSc1[nH]c(NC(=NC(C)C)NC(=O)c2ccccc2)c(C(N)=O)c1C(N)=O
TGI (MOLT-4 leukemia): > 10 µM
TGI (IGROV1 ovarian): > 10 µM
TGI (UACC-257 melanoma): > 10 µM
TGI (COLO 205 colon): > 10 µM
TGI (CCRF-CEM leukemia): > 10 µM
TGI (OVCAR-4 ovarian): > 10 µM

COc1ccc(C=NCCCN=Cc2ccc(OC)cc2O)c(O)c1
TGI (ACHN renal): > 100 µM
TGI (MOLT-4 leukemia): > 100 µM
TGI (IGROV1 ovarian): > 100 µM
TGI (U251 CNS): > 100 µM
TGI (UACC-257 melanoma): > 100 µM
TGI (CCRF-CEM leukemia): > 100 µM
TGI (OVCAR-4 ovarian): > 100 µM
TGI (HS 578T breast): 63.7 µM

Cc1sc2nc3n(c(=O)c2c1C)N=C(c1ccccc1)CS3
TGI (ACHN renal): > 100 µM
TGI (MOLT-4 leukemia): > 100 µM
TGI (IGROV1 ovarian): > 100 µM
TGI (U251 CNS): > 100 µM
TGI (UACC-257 melanoma): > 100 µM
TGI (COLO 205 colon): > 100 µM
TGI (CCRF-CEM leukemia): > 100 µM
TGI (OVCAR-4 ovarian): > 100 µM
TGI (HS 578T breast): > 100 µM

O=C1C(=Cc2ccc([N+](=O)[O-])o2)C(=O)N(CCc2ccccc2)S(=O)(=O)N1CCc1ccccc1
TGI (ACHN renal): 31.2 µM
TGI (MOLT-4 leukemia): 56.6 µM
TGI (IGROV1 ovarian): > 100 µM
TGI (U251 CNS): > 100 µM
TGI (UACC-257 melanoma): > 100 µM
TGI (COLO 205 colon): 36.9 µM
TGI (CCRF-CEM leukemia): > 100 µM
TGI (OVCAR-4 ovarian): 30 µM

N#CC(C#N)C1CN2CCC1CC2 (stereo not drawn)
TGI (ACHN renal): > 100 µM
TGI (MOLT-4 leukemia): > 100 µM
TGI (IGROV1 ovarian): > 100 µM
TGI (U251 CNS): > 100 µM
TGI (UACC-257 melanoma): > 100 µM
TGI (COLO 205 colon): > 100 µM
TGI (CCRF-CEM leukemia): > 100 µM
TGI (OVCAR-4 ovarian): > 100 µM
TGI (HS 578T breast): > 100 µM

COC(=O)[C@@H](NC(=O)c1ccc(CNC(=O)/C(C)=C/c2ccccc2)cc1)C(C)C
TGI (ACHN renal): > 100 µM
TGI (MOLT-4 leukemia): > 100 µM
TGI (IGROV1 ovarian): > 100 µM
TGI (U251 CNS): > 100 µM
TGI (UACC-257 melanoma): 39 µM
TGI (COLO 205 colon): > 100 µM
TGI (CCRF-CEM leukemia): > 100 µM
TGI (OVCAR-4 ovarian): > 100 µM

NC(CS)C(=O)NCCNc1ccc(NCCNC(=O)C(N)CS)c2c1C(=O)c1c(O)ccc(O)c1C2=O (stereo not drawn)
TGI (ACHN renal): 0.123 µM and 0.104 µM
TGI (MOLT-4 leukemia): 0.62 µM
TGI (IGROV1 ovarian): 1.47 µM
TGI (U251 CNS): 0.136 µM and 0.117 µM
TGI (UACC-257 melanoma): 2.41 µM and 2.29 µM
GI50 (COLO 205 colon): 0.136 µM
TGI (COLO 205 colon): 1.83 µM and 1.12 µM
TGI (CCRF-CEM leukemia): 0.517 µM
GI50 (OVCAR-4 ovarian): 0.109 µM
TGI (OVCAR-4 ovarian): 0.847 µM and 0.401 µM
TGI (HS 578T breast): 0.615 µM

Cc1ccc(S(=O)(=O)NCCCSCCO)cc1
TGI (ACHN renal): > 100 µM
TGI (MOLT-4 leukemia): > 100 µM
TGI (U251 CNS): > 100 µM
TGI (UACC-257 melanoma): > 100 µM
TGI (COLO 205 colon): > 100 µM
TGI (CCRF-CEM leukemia): > 100 µM
TGI (OVCAR-4 ovarian): > 100 µM
TGI (HS 578T breast): > 100 µM

Cc1cc(N)c2cc(NC(=O)Nc3ccc4nc(C)cc(N)c4c3)ccc2n1
TGI (ACHN renal): > 100 µM
TGI (MOLT-4 leukemia): > 100 µM
TGI (IGROV1 ovarian): > 100 µM
TGI (U251 CNS): > 100 µM
TGI (UACC-257 melanoma): > 100 µM
TGI (COLO 205 colon): > 100 µM
TGI (CCRF-CEM leukemia): > 100 µM
TGI (OVCAR-4 ovarian): > 100 µM
TGI (HS 578T breast): > 100 µM

CC1(C)OC2[C@@H](CO[C@@]3([C@H]4OC(C)(C)O[C@@H]4CO)OC(C)(C)O[C@@H]23)O1 (stereo partly drawn)
TGI (ACHN renal): > 100 µM
TGI (MOLT-4 leukemia): > 100 µM
TGI (IGROV1 ovarian): > 100 µM
TGI (U251 CNS): > 100 µM
TGI (COLO 205 colon): > 100 µM
TGI (CCRF-CEM leukemia): > 100 µM
TGI (OVCAR-4 ovarian): > 100 µM
TGI (HS 578T breast): > 100 µM

CCN(CCN(CC)C(=O)NC)C(=O)NC
TGI (ACHN renal): > 100 µM
TGI (MOLT-4 leukemia): > 100 µM
TGI (IGROV1 ovarian): > 100 µM
TGI (U251 CNS): > 100 µM
TGI (UACC-257 melanoma): > 100 µM
TGI (COLO 205 colon): > 100 µM
TGI (CCRF-CEM leukemia): > 100 µM
TGI (HS 578T breast): > 100 µM

COc1cc(/C=C/C2=NN(c3cccc(S(=O)(=O)O)c3)C3(C2)SCC(=O)N3c2nc3ccccc3s2)cc(OC)c1OC (stereo not drawn)
TGI (ACHN renal): > 100 µM
TGI (MOLT-4 leukemia): > 100 µM
TGI (IGROV1 ovarian): > 100 µM
TGI (U251 CNS): > 100 µM
TGI (UACC-257 melanoma): > 100 µM
TGI (COLO 205 colon): > 100 µM
TGI (CCRF-CEM leukemia): 75.1 µM
TGI (OVCAR-4 ovarian): > 100 µM
TGI (HS 578T breast): > 100 µM

C=C(C)[C@@H]1CCC2=C(CC[C@]3(C)[C@@H]([C@@H](CCC=C(C)C)C(=O)O)[C@H](O)C[C@@]23C)[C@@]1(C)CCC(=O)O
TGI (ACHN renal): > 100 µM
TGI (MOLT-4 leukemia): > 100 µM
TGI (IGROV1 ovarian): > 100 µM
TGI (U251 CNS): > 100 µM
TGI (UACC-257 melanoma): > 100 µM
TGI (COLO 205 colon): > 100 µM
TGI (CCRF-CEM leukemia): > 100 µM
TGI (OVCAR-4 ovarian): > 100 µM
TGI (HS 578T breast): > 100 µM

CCOC(=O)C(NC(=O)c1ccccc1)(Nc1ccc(S(=O)(=O)Nc2ccc(OC)nn2)cc1)C(F)(F)F (stereo not drawn)
TGI (ACHN renal): > 100 µM
TGI (MOLT-4 leukemia): > 100 µM
TGI (IGROV1 ovarian): > 100 µM
TGI (U251 CNS): > 100 µM
TGI (UACC-257 melanoma): > 100 µM
TGI (COLO 205 colon): > 100 µM
TGI (CCRF-CEM leukemia): > 100 µM
TGI (OVCAR-4 ovarian): > 100 µM
TGI (HS 578T breast): > 100 µM
